Values after ≈ are worked out from the molar mass of the structure shown. Values joined by “and” are separate entries in the source; they are usually repeats but may differ in a detail not shown here. Equal values may be shown once. Read-outs that look alike come from different tables or passages of the source.
Assays:
[1] = test system: methicillin-sensitive S. aureus (MSSA, ATCC29213); test: MIC, broth dilution, MSSA ATCC 29213; assay type: cell-based, Staphylococcus aureus
Description: (§1) As described in our previous work, we evaluated all the compounds mentioned above on different S. aureus strains. We tested on both methicillin-sensitive S. aureus (MSSA, ATCC29213) and two clinical isolates of S. aureus showing multi-drug resistance (MDRSA). […] We analyzed the MICs and, if the antibacterial activity was promising, we also determined the percentage of cytotoxicity using the MTT assay on human MRC-5 cells and reported it as TD90. The results of antibacterial properties of all of the synthesized derivatives are shown in Table 1, and they are compared with their reference compounds FZ14, FZ88, and FZ100.
Gram-positive methicillin-sensitive Staphylococcus aureus (MSSA, ATCC 29213) was grown in Luria–Bertani broth (LB), as already described in our papers.
(§2) The detailed protocol is identical to what was previously reported. Briefly, the antimicrobial testing of compounds followed the Clinical and Laboratory Standards Institute and European Committee for Antimicrobial Susceptibility Testing guidelines. A bacterial suspension equivalent to 0.5 McFarland turbidity standard was diluted in cation-adjusted Mueller Hinton broth to prepare a fresh bacterial culture of 10^5 CFU/mL. Compounds dissolved in DMSO were combined with the bacteria and incubated for 20 h at 35 °C. MIC values were determined visually as the lowest compound dilution with no turbidity. MICs were determined against methicillin-sensitive and methicillin-resistant S. aureus strains (11.7 and 12.1). Every assay was performed in triplicate, and for each series of experiments, both positive (tetracycline) and negative (no compounds) controls were included.

MDRSA 12.1 = test: MIC, broth dilution, MDRSA 12.1; assay type: cell-based, Staphylococcus aureus; conditions: MDRSA 12.1 clinical isolate
Description: as §1, §2

MDRSA 11.7 = test: MIC, broth dilution, MDRSA 11.7; assay type: cell-based, Staphylococcus aureus; conditions: MDRSA 11.7 clinical isolate
Description: as §1, §2

human MRC-5 cells [2] = test: MTT cytotoxicity assay; assay type: cell-based; conditions: MRC-5, MTT assay
Description: as §1
Normal human lung fibroblasts (MRC-5) were grown in Dulbecco’s Modified Eagle’s medium (DMEM) supplemented with 10% heat-inactivated fetal calf serum (FCS), 100 U/mL penicillin, and […] streptomycin.
Compounds showing promising antibacterial activity were serially diluted in DMEM and tested for cytotoxicity on MRC-5 cells using the MTT assay (Sigma, St Louis, MO, USA), following the same protocol we previously reported.

[3] = test system: B. subtilis strain WM5126; test: Spot viability assay on solid medium; assay type: cell-based, Bacillus subtilis; conditions: for colony viability on solid medium, in words: more potent compounds, Figure 4A; for growth on solid medium at 6 µg/mL: 6 µg/mL in LB agar; for concentration able to kill on solid medium: spot dilutions on LB agar
Description: (§3) We further evaluated the most promising compounds on B. subtilis, a model Gram-positive species used previously in evaluating other benzamides, including by our research group. The B. subtilis strain WM5126 expresses a xylose-inducible GFP-tagged ZapA protein. […] We first tested the effects of the compounds on colony viability on solid medium (Figure 4). […] MIC values from microdilution experiments, shown in the right column in Figure 4, largely mirrored the spot viability data.
(§4) The B. subtilis strain used was WM5126 (JH642 amyE::Pxyl-gfp-zapA). For spot viability assays on plates, compounds were diluted from DMSO stocks into molten LB agar and mixed well before solidifying. To assess viability, cells were grown until the early log phase, and then 10-fold serial dilutions of the culture in LB were spotted onto LB agar plates containing the indicated final concentration of the compounds. The plates were incubated overnight at 30 °C and photographed. Microdilution assays to obtain MICs were performed essentially as described for E. coli.

[4] = test system: B. subtilis strain WM5126; test: MIC from broth microdilution; assay type: cell-based, Bacillus subtilis
Description: as §3, §4

[5] = test system: FtsZ rings in live B. subtilis WM 5126 cells expressing GFP-ZapA; test: GFP-ZapA fluorescence microscopy of FtsZ assembly; assay type: cell-based, Bacillus subtilis; conditions: 0.3 µg/mL (0.8 µM), 90 min
Experimental: To test if the differential effects of FZ116 and FZ117 enantiomers could be detected as FtsZ assembly changes in B. subtilis cells, we visualized GFP-ZapA patterns after growth in inhibitory concentrations of FZ116 and FZ117 (0.3 µg/mL or 0.8 µM). Cells grown with no added compound grew as typical single bacilli and short chains, with well- defined Z rings clearly visible (Figure 5, left panel, single yellow arrows). […] This conversion of FtsZ rings into a speckle pattern was observed previously, both with FZ100 [14] and with the original benzamide derivatives.
For fluorescence microscopy, overnight cultures of WM5126 were grown at 33 °C (after 1:200 dilution overnight and addition of 0.1% xylose to induce expression of GFP-ZapA) for ~2 h until reaching an OD600 of ~0.2 and then treated with no drug or with compounds FZ116 or FZ117 diluted in water to a final concentration of 0.3 µg/mL (0.8 µM) from stock solutions of 30 mg/mL in DMSO. After the addition of the compounds, the cultures were grown for 90 min while shaking at 33 °C prior to spotting on a thin layer of 1% agarose in phosphate-buffered saline. Cells were imaged with an Olympus BX100 fitted with a 100 × Plan Apochromat objective (N.A. 1.4) and a GFP filter set (Chroma). Images were acquired with CellSens Dimension version 2 software (Evident Corporation, Tokyo, Japan).

E. coli FtsZ = test system: E. coli FtsZ; parameters: method as in PMID 37634788; conditions: in words; cited from earlier work
human MRC-5 cells [6] = test system: human MRC-5 cells; parameters: method as in PMID 33920895; conditions: in words; cited from earlier work
[7] = test system: methicillin-sensitive Staphylococcus aureus (MSSA); conditions: cited from earlier work
[8] = test system: methicillin-resistant S. aureus (MRSA); conditions: cited from earlier work
B. subtilis = test system: B. subtilis; parameters: method as in PMID 33920895; conditions: cited from earlier work
[9] = MSSA ATCC 29213, 20 h at 35 °C, read-out: MIC
[10] = as repeated in Table S1 beside the docking ranges, read-out: MIC vs S. aureus
[11] = Staphylococcus aureus, 20 h, MSSA ATCC 29213, 20 h at 35 °C, read-out: MIC
[12] = Staphylococcus aureus, read-out: MIC vs S. aureus
[13] = Bacillus subtilis, value in brackets

| Compound | TD90 (human MRC-5 cells [2]) | MIC [1, 11] | MIC [1, 12] | MIC (MDRSA 12.1; Staphylococcus aureus) | MIC (MDRSA 11.7; Staphylococcus aureus) | MIC ([4]; Bacillus subtilis) | MIC [4, 13] | further results |
| --- | --- | --- | --- | --- | --- | --- | --- | --- |
| CC(COc1ccc(F)c(C(N)=O)c1F)C1COc2cc3c(cc2O1)CCCC3 (stereo not drawn) [FZ119, Threo 3-(2-(5,6,7,8-Tetrahydro-1,4-naphthodioxan-2-yl)prop-1-yloxy)-2,6-difluorobenzamide] | 247.9 µM | – | – | – | – | – | – | MIC [1, 9]: 9.9 µM (≈ 3.99 µg/mL); MIC [1, 10]: 9.9 µM (≈ 3.99 µg/mL); MIC (MDRSA 12.1): 9.9 µM (≈ 3.99 µg/mL); MIC (MDRSA 11.7): 9.9 µM (≈ 3.99 µg/mL); colony viability on solid medium, in words [3]: killed B. subtilis at the lowest doses; MIC (microdilution) [4]: < 0.24 µg/mL; MIC ([4]; value in brackets): < 0.6 µM |
| NC(=O)c1c(F)ccc(OC[C@H](O)[C@H]2COc3ccccc3O2)c1F (relative stereo) [FZ112] | – | 364 µM (≈ 128 µg/mL) | 364 µM (≈ 128 µg/mL) | 364 µM (≈ 128 µg/mL) | 364 µM (≈ 128 µg/mL) | 7.5 µg/mL | 21 µM | growth on solid medium at 6 µg/mL [3]: still permitted growth |
| C[C@H](Oc1ccc(F)c(C(N)=O)c1F)[C@H]1COc2ccccc2O1 (relative stereo) [FZ104, 3-[1-(1,4-benzodioxan-2yl)ethyl-1-oxy]-2,6-difluorobenzamide] | – | 23.9 µM (≈ 8.01 µg/mL) | 23.9 µM (≈ 8.01 µg/mL) | 23.9 µM (≈ 8.01 µg/mL) | 23.9 µM (≈ 8.01 µg/mL) | 3.75 µg/mL | 11 µM | concentration able to kill on solid medium ([3]; overnight 30 °C): 6 µg/mL; concentration able to kill on solid medium ([3]; value in brackets): ~ 20 µM |
| NC(=O)c1c(F)ccc(OC[C@H](O)[C@H]2COc3cc4c(cc3O2)CCCC4)c1F (relative stereo) [FZ116] | 468.7 µM | 4.9 µM (≈ 1.99 µg/mL) | 4.9 µM (≈ 1.99 µg/mL) | 4.9 µM (≈ 1.99 µg/mL) | 4.9 µM (≈ 1.99 µg/mL) | < 0.24 µg/mL | < 0.6 µM | colony viability on solid medium, in words [3]: killed B. subtilis at the lowest doses; FtsZ ring / GFP-ZapA pattern [5]: largely disrupted; in vitro inhibition of E. coli FtsZ (E. coli FtsZ): very strong |
| NC(=O)c1c(F)ccc(OCC2COc3ccccc3O2)c1F (stereo not shown) [FZ14, reference compound] | 49.8 µM | 15.6 µM (≈ 5.01 µg/mL) | – | 15.6 µM (≈ 5.01 µg/mL) | 15.6 µM (≈ 5.01 µg/mL) | – | – | – |
| CC(Oc1ccc(F)c(C(N)=O)c1F)C1COc2ccccc2O1 (stereo not shown) [FZ105, 3-[1-(1,4-benzodioxan-2yl)ethyl-1-oxy]-2,6-difluorobenzamide] | – | 191 µM (≈ 64 µg/mL) | 191 µM (≈ 64 µg/mL) | 191 µM (≈ 64 µg/mL) | 191 µM (≈ 64 µg/mL) | – | – | – |
| CC(COc1ccc(F)c(C(N)=O)c1F)C1COc2ccccc2O1 (stereo not shown) [FZ97, 3-(2-(1,4-benzodioxan-2-yl)-1-propyloxy)-2,6-difluorobenzamide] | – | – | – | – | – | – | – | MIC [1, 9]: 366.4 µM (≈ 128 µg/mL); MIC [1, 10]: 366.4 µM (≈ 128 µg/mL); MIC (MDRSA 12.1): 366.4 µM (≈ 128 µg/mL); MIC (MDRSA 11.7): 366.4 µM (≈ 128 µg/mL) |
| NC(=O)c1c(F)ccc(OCCC2COc3cc4ccccc4cc3O2)c1F (stereo not shown) [FZ95] | – | – | – | – | – | – | – | cytotoxicity towards human MRC-5 cells (human MRC-5 cells [6]): low to no cytotoxicity; MIC [7]: 0.25 μg/mL and 0.6 μM; MIC [8]: 0.25 μg/mL and 0.6 μM; MIC (B. subtilis): under 0.1 μg/mL |
| CC(COc1ccc(F)c(C(N)=O)c1F)C1COc2ccccc2O1 (stereo not shown) [FZ98, 3-(2-(1,4-benzodioxan-2-yl)-1-propyloxy)-2,6-difluorobenzamide] | – | – | – | – | – | 15 µg/mL | 42 µM | MIC [1, 9]: 91.6 µM (≈ 32 µg/mL); MIC [1, 10]: 91.6 µM (≈ 32 µg/mL); MIC (MDRSA 12.1): 91.6 µM (≈ 32 µg/mL); MIC (MDRSA 11.7): 91.6 µM (≈ 32 µg/mL); growth on solid medium at 6 µg/mL [3]: still permitted growth |
| NC(=O)c1c(F)ccc(OCc2nc3cc(Cl)cnc3s2)c1F [PC190723] | – | – | – | – | – | – | – | MIC [7]: 1 µg/mL (≈ 2.81 µM); MIC [8]: 1 µg/mL (≈ 2.81 µM) |
| NC(=O)c1c(F)ccc(OCCC2COc3ccccc3O2)c1F (stereo not shown) [FZ88, reference compound] | 226 µM | 14.9 µM (≈ 5 µg/mL) | – | 14.9 µM (≈ 5 µg/mL) | 14.9 µM (≈ 5 µg/mL) | – | – | – |
| CC(COc1ccc(F)c(C(N)=O)c1F)C1COc2cc3c(cc2O1)CCCC3 (stereo not drawn) [FZ118, Erythro 3-(2-(5,6,7,8-Tetrahydro-1,4-naphthodioxan-2-yl)prop-1-yloxy)-2,6-difluorobenzamide] | 471.0 µM | 9.9 µM (≈ 3.99 µg/mL) | 9.9 µM (≈ 3.99 µg/mL) | 9.9 µM (≈ 3.99 µg/mL) | 9.9 µM (≈ 3.99 µg/mL) | < 0.24 µg/mL | < 0.6 µM | colony viability on solid medium, in words [3]: less effective |
| NC(=O)c1c(F)ccc(OCCC2COc3cc4c(cc3O2)CCCC4)c1F (stereo not shown) [FZ100] | 2054 µM | 0.25 µM (≈ 0.0973 µg/mL) | – | 0.25 µM (≈ 0.0973 µg/mL) | 0.25 µM (≈ 0.0973 µg/mL) | – | – | cytotoxicity towards human MRC-5 cells (human MRC-5 cells [6]): low to no cytotoxicity; MIC [7]: 0.1 μg/mL and 0.25 μM; MIC [8]: 0.1 μg/mL and 0.25 μM; MIC (B. subtilis): under 0.1 μg/mL |
| NC(=O)c1c(F)ccc(OC[C@@H](O)[C@H]2COc3ccccc3O2)c1F (relative stereo) [FZ113] | – | 364 µM (≈ 128 µg/mL) | 364 µM (≈ 128 µg/mL) | 364 µM (≈ 128 µg/mL) | 364 µM (≈ 128 µg/mL) | 15 µg/mL | 42 µM | growth on solid medium at 6 µg/mL [3]: still permitted growth |
| NC(=O)c1c(F)ccc(OC[C@@H](O)[C@H]2COc3cc4c(cc3O2)CCCC4)c1F (relative stereo) [FZ117] | 468.7 µM | 19.7 µM (≈ 7.99 µg/mL) | 19.7 µM (≈ 7.99 µg/mL) | 19.7 µM (≈ 7.99 µg/mL) | 19.7 µM (≈ 7.99 µg/mL) | 0.94 µg/mL | 2.7 µM | colony viability on solid medium, in words [3]: less effective; FtsZ ring / GFP-ZapA pattern [5]: mixture of FtsZ speckles and Z rings |
